From US6967215B2, “Tetrahydrocarbazoles, a process for the preparation of those compounds, and the use thereof” (Ciba Specialty Chemicals Corporation, priority 2000, dated 2005)

Assays:
Experiment in all cases: MIC, microtitre dilution test (growth by optical density at 620 nm)
Type in all cases: cell-based
P. aeruginosa = conditions: Table 5
Description: All the test organisms are adjusted to an organism count of 1-5×10^6 CFU/ml using 0.85% sodium chloride solution. The test substances are pre-pipetted into microtitre plates in an amount of 8 μl per well. Pre-diluted organism suspensions are diluted 1:100 in CASO bouillon (bacteria and yeast) or Sabouraud 2% glucose bouillon (mould) and are added in an amount of 192 μl per well to the test substances. The test batches are incubated for 48 hours at 37° C. (bacteria and yeast) or for 5 days at 28° C. (mould). After incubation, the growth is evaluated by reference to the turbidity of the test batches (optical density) at 620 nm in a microplate reader. The minimum inhibitory concentration (MIC value) is the concentration of substance at which (compared with the growth of the control) an appreciable inhibition of growth (≦20% growth) of the test organisms is ascertained. One microtitre plate is used for each test organism and substance concentration. All the substances are tested in duplicate.

[1] = tested on: Aspergillus niger ATCC 6175; conditions: Table 5
Description: Nutrient: Mycological slant agar for the pre-culture of moulds [table] The test substances are predissolved in dimethyl sulfoxide (DMSO) and tested in a dilution series of 1:2. Bacteria and yeast are cultured overnight in CASO bouillon, the mould is cultured overnight on mycological slant agar, and washed off with 10 ml of 0.85% sodium chloride solution (+0.1% TritonX-100). All the test organisms are adjusted to an organism count of 1-5×10^6 CFU/ml using 0.85% sodium chloride solution. The test substances are pre-pipetted into microtitre plates in an amount of 8 μl per well. Pre-diluted organism suspensions are diluted 1:100 in CASO bouillon (bacteria and yeast) or Sabouraud 2% glucose bouillon (mould) and are added in an amount of 192 μl per well to the test substances. The test batches are incubated for 48 hours at 37° C. (bacteria and yeast) or for 5 days at 28° C. (mould). After incubation, the growth is evaluated by reference to the turbidity of the test batches (optical density) at 620 nm in a microplate reader. The minimum inhibitory concentration (MIC value) is the concentration of substance at which (compared with the growth of the control) an appreciable inhibition of growth (≦20% growth) of the test organisms is ascertained. One microtitre plate is used for each test organism and substance concentration. All the substances are tested in duplicate.

[2] = tested on: Escherichia coli NCTC 8196; conditions: for MIC [ppm] E. coil: Table 5; for MIC [ppm] E. coli: Table 2, Escherichia coli
Description: (§1) Casein/soybean flour peptone bouillon for the preparation of pre-cultures of the test bacteria and yeast.
(§2) The test substances are predissolved in dimethyl sulfoxide (DMSO) and tested in a dilution series of 1:2.
(§3) Bacteria and yeast are cultured overnight in CASO bouillon, the mould is cultured overnight on mycological slant agar, and washed off with 10 ml of 0.85% sodium chloride solution (+0.1% TritonX-100).
(§4) All the test organisms are adjusted to an organism count of 1-5×10^6 CFU/ml using 0.85% sodium chloride solution.
(§5) The test substances are pre-pipetted into microtitre plates in an amount of 8 μl per well.
(§6) Pre-diluted organism suspensions are diluted 1:100 in CASO bouillon (bacteria and yeast) or Sabouraud 2% glucose bouillon (mould) and are added in an amount of 192 μl per well to the test substances.
(§7) The test batches are incubated for 48 hours at 37° C. (bacteria and yeast) or for 5 days at 28° C. (mould).
(§8) After incubation, the growth is evaluated by reference to the turbidity of the test batches (optical density) at 620 nm in a microplate reader.
(§9) The minimum inhibitory concentration (MIC value) is the concentration of substance at which (compared with the growth of the control) an appreciable inhibition of growth (≦20% growth) of the test organisms is ascertained.
(§10) One microtitre plate is used for each test organism and substance concentration. All the substances are tested in duplicate.

[3] = tested on: Staphylococcus hominis DMS 20328
Description: as §1, §2, §3, §4, §5, §6, §7, §8, §9, §10

[4] = Table 2, Staphylococcus hominis DMS 20328

MIC [ppm] P. aeruginosa (P. aeruginosa) [ppm]	MIC [ppm] A. niger [1] [ppm]	MIC [ppm] E. coil [2] [ppm]	MIC [ppm] S. hominis ([3]; Table 5) [ppm]	MIC [ppm] E. coli [2] [ppm]	MIC [ppm] S. hominis [3, 4] [ppm]	SMILES
120	>120	>120	>120			CCCN1CCC2c3c([nH]c4cc(F)ccc34)C3C(=O)NC(=O)C3C2C1 (centres unmarked) [Compound 207]
>120	>120	>120	>120			CCCN1CCC2c3c([nH]c4cccc(OCC(O)CNC(C)C)c34)C3C(=O)NC(=O)C3C2C1 (centres unmarked) [Compound 190]
>120	>120	60	>120			CCCN1CCC2c3c([nH]c4ccc(F)cc34)C3C(=O)NC(=O)C3C2C1 (centres unmarked) [Compound 193]
120	>120	>120	>120			CCCN1CCC2c3c([nH]c4cccc(C)c34)C3C(=O)NC(=O)C3C2C1 (centres unmarked) [Compound 186]
>120	>120	120	120			CCCN1CCC2c3c([nH]c4cccc(F)c34)C3C(=O)NC(=O)C3C2C1 (centres unmarked) [Compound 226]
>120	>120	>120	120			CCCN1CCC2c3c([nH]c4ccc(C(=O)OC)cc34)C3C(=O)NC(=O)C3C2C1 (centres unmarked) [Compound 235]
				>120	>120	COc1ccc2[nH]c3c(c2c1)C1CCN(C(C)C)CC1C1C(=O)N(C)C(=O)C31 (centres unmarked) [Compound 171]
				>120	>120	COc1ccc2[nH]c3c(c2c1)C1CCN(C)CC1C1C(=O)N(C)C(=O)C31 (centres unmarked) [Compound 178]
				>120	>120	COc1ccc2[nH]c3c(c2c1)C1CCCCCCC1C1C(=O)N(C)C(=O)C31 (centres unmarked) [Compound 180]
				>120	>120	CCN1CCC2c3c([nH]c4ccc(OC)cc34)C3C(=O)N(C)C(=O)C3C2C1 (centres unmarked) [Compound 176]
				>120	>120	CCC(C)(C)C1CCC2c3c([nH]c4ccc(OC)cc34)C3C(=O)N(C)C(=O)C3C2C1 (centres unmarked) [Compound 175]
				>120	>120	CCOC(=O)N1CCC2c3c([nH]c4ccc(OC)cc34)C3C(=O)N(C)C(=O)C3C2C1 (centres unmarked) [Compound 170]

The next lines start with the compound.

SMILES	MIC [ppm] P. aeruginosa (P. aeruginosa) [ppm]	MIC [ppm] A. niger [1] [ppm]	MIC [ppm] E. coil [2] [ppm]	MIC [ppm] S. hominis ([3]; Table 5) [ppm]	MIC [ppm] E. coli [2] [ppm]	MIC [ppm] S. hominis [3, 4] [ppm]
CN1C(=O)C2c3[nH]c4ccccc4c3C3CCC(C(C)(C)C)CC3C2C1=O (centres unmarked) [Compound 111]					>120	60
CN1C(=O)C2c3[nH]c4ccccc4c3C3CC(C)(C)CC(C)(C)C3C2C1=O (centres unmarked) [Compound 126]					>120	>120
CCN1C(=O)C2c3[nH]c4ccc(Br)cc4c3C3CCC(C(C)(C)C)CC3C2C1=O (centres unmarked) [Compound 44]					>120	>120
COc1ccc2[nH]c3c(c2c1)C1CCCC1C1C(=O)N(C)C(=O)C31 (centres unmarked) [Compound 165]					>120	120
CCC(C)(C)C1CCC2c3c([nH]c4ccc(OC)cc34)C3C(=O)NC(=O)C3C2C1 (centres unmarked) [Compound 102]					>120	60
Cn1c2c(c3ccccc31)C1CC(C)(C)NC(C)(C)C1C1C(=O)N(c3ccccc3)C(=O)C21 (centres unmarked) [Compound 24]					>120	>120
CN1C(=O)C2c3[nH]c4ccc(Br)cc4c3C3CCCCCC3C2C1=O (centres unmarked) [Compound 130]					>120	15
CCCN1CCC2c3c([nH]c4ccc(Br)cc34)C3C(=O)N(CC)C(=O)C3C2C1 (centres unmarked) [Compound 46]					120	120
CCCN1CCC2c3c([nH]c4ccccc34)C3C(=O)N(C)C(=O)C3C2C1 (centres unmarked) [Compound 114]					>120	>120
CC(C)N1CCC2c3c([nH]c4ccccc34)C3C(=O)NC(=O)C3C2C1 (centres unmarked) [Compound 55]					>120	>120
CC(C)(C)C1CCC2c3c([nH]c4ccc(Br)cc34)C3C(=O)N(c4ccccc4)C(=O)C3C2C1 (centres unmarked) [Compound 19]					>120	>120
O=C1NC(=O)C2C1c1[nH]c3ccc(Br)cc3c1C1CCCCCC12 (centres unmarked) [Compound 32]					>120	3.75
COc1ccc2[nH]c3c(c2c1)C1CCC(C(C)(C)C)CC1C1C(=O)N(C)C(=O)C31 (centres unmarked) [Compound 166]					>120	>120
CCCC1CCC2c3c([nH]c4ccc(OC)cc34)C3C(=O)NC(=O)C3C2C1 (centres unmarked) [Compound 101]					>120	>120
COc1ccc2[nH]c3c(c2c1)C1CCCCC1C1C(=O)NC(=O)C31 (centres unmarked) [Compound 91]					>120	>120
Cn1c2c(c3ccccc31)C1CCC(C(C)(C)C)CC1C1C(=O)N(c3ccccc3)C(=O)C21 (centres unmarked) [Compound 22]					>120	>120
CCOC(=O)N1CCC2c3c([nH]c4ccc(Br)cc34)C3C(=O)NC(=O)C3C2C1 (centres unmarked) [Compound 68]					>120	>120
COc1ccc2[nH]c3c(c2c1)C1CCCCC1C1C(=O)N(C)C(=O)C31 (centres unmarked) [Compound 164]					>120	>120
COc1ccc2[nH]c3c(c2c1)C1CCCCCC1C1C(=O)NC(=O)C31 (centres unmarked) [Compound 94]					>120	>120
CCOC(=O)N1CCC2c3c([nH]c4ccccc34)C3C(=O)NC(=O)C3C2C1 (centres unmarked) [Compound 54]					>120	>120
CC(C)N1CCC2c3c([nH]c4ccccc34)C3C(=O)N(C)C(=O)C3C2C1 (centres unmarked) [Compound 116]					>120	120
CCc1cccc2c3c([nH]c12)C1C(=O)NC(=O)C1C1CCCC31 (centres unmarked) [Compound 75]					>120	30
